Measurements: article PMC5814047, “Peptidic inhibitors of insulin-degrading enzyme with potential for dermatological applications discovered via phage display” (PLoS ONE, 2018)
Where two headings read alike, the source gives them in different places. Each block holds one molecule with its values, some of them ahead of it. Bridge positions count the residues as written; N and C are the ends. Ends that are not written are not given here. Peptide text beside a SMILES is read from it.

What was measured:
IDE [1] = target: T1, IDE (Homo sapiens, UniProt P14735); assay: biochemical; details: for IC50: FRET1, listed in Table 1, read-out: IC50, summary of results of the initial test; for IC50 <500 uM?: initial test at 500 uM; for Ki: substrate FRET1 5 μM, Ki from IC50 with the Cheng-Prusoff equation, read-out: Ki FRET1
T1 construct: made in house; host or cells: bacteria
T1 sequence (P14735 1-1019): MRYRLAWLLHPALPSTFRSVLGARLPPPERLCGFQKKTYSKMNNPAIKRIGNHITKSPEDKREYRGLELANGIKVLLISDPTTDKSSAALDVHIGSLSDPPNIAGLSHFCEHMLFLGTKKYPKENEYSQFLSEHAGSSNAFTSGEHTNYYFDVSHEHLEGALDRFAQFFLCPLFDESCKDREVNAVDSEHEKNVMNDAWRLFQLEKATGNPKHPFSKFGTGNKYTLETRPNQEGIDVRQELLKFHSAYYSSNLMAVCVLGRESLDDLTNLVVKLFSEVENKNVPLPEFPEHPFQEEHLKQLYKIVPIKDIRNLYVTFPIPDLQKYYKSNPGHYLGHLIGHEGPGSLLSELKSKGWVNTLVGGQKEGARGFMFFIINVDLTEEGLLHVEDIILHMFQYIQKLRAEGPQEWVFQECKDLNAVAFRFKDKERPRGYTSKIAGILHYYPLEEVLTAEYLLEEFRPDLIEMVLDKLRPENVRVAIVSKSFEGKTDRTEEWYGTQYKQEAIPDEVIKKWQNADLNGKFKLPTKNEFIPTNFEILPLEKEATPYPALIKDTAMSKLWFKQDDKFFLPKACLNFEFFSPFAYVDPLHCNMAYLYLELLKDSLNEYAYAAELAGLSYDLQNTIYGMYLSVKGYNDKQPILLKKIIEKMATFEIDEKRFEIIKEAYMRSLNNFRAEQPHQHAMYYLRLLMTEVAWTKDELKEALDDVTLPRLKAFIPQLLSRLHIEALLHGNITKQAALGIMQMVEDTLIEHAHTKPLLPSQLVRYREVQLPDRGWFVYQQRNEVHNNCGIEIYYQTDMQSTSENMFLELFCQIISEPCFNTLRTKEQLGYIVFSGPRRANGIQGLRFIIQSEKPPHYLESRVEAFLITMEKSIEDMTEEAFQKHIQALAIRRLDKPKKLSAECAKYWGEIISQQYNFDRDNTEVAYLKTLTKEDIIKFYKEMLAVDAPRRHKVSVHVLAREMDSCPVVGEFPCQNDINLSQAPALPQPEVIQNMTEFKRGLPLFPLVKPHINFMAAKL
Method: The six selected peptide sequences (C7C-1, C7C-2, 12–1, 12–2, 12–3 and 12–4) were synthesized, together with a variety of modifications, yielding a total of 25 peptides (Table 1). […] Other modifications included N-terminal acetylation and C-terminal amidation, included to mimic the charge state of the peptides when incorporated in the phage coat protein (Table 1).
IDE activity was quantified by monitoring the degradation of Mca-[…](Dnp) (FRET1, 5 μM), fluoresceinated and biotinylated amyloid ß-protein (FAßB; 500 nM) or recombinant human insulin (50 nM) in PBS supplemented with 0.05% BSA. […] In vitro activity assays incorporated recombinant human IDE (1 nM) purified from bacteria. For quantitation of insulin degradation in primary murine skin fibroblasts, cells (1 x 10^5/well) were plated in 96-well plates and maintained in DMEM supplemented with 10% fetal bovine serum (FBS), 2mM glutamine, penicillin and streptomycin. After addition of insulin (10 nM or 100 nM), samples of conditioned medium were removed daily and quickly frozen, then insulin levels were quantified in parallel by ELISA according to manufacturer’s recommendations (Crystal Chem, Downers Grove, IL, USA). Assessment of the activity of P12-3A against a variety of matrix-metalloproteases was conducted using the Matrix Metalloproteinase (MMP) Inhibitor Profiling Kit, Fluorometric RED (Enzo Life Sciences, Inc., Farmingdale, NY, USA) according to manufacturer’s recommendations using the broad-spectrum MMP inhibitor, NNGH, as a positive control.

IDE [2] = target: T1, IDE; assay: biochemical; details: for IC50: from initial test at 10 uM using insulin (100 nM), read-out: IC50 (summary of results, listed in Table 1); for Ki: substrate recombinant human insulin 50 nM, Ki from IC50 with the Cheng-Prusoff equation
Excerpt: The six selected peptide sequences (C7C-1, C7C-2, 12–1, 12–2, 12–3 and 12–4) were synthesized, together with a variety of modifications, yielding a total of 25 peptides (Table 1). For the 12-mer peptides, we synthesized variants of the parent peptides truncated at one or both termini, to test whether the entire sequence was necessary or not, in the hope that shorter, and thus less expensive, sequences might be effective. Other modifications included N-terminal acetylation and C-terminal amidation, included to mimic the charge state of the peptides when incorporated in the phage coat protein (Table 1). To assess the extent to which these peptide sequences inhibit IDE, we quantified their potency in protease activity assays using recombinant human IDE and two different substrates: FRET1, a fluorogenic peptide, and recombinant human insulin.
IDE activity was quantified by monitoring the degradation of Mca-[…](Dnp) (FRET1, 5 μM), fluoresceinated and biotinylated amyloid ß-protein (FAßB; 500 nM) or recombinant human insulin (50 nM) in PBS supplemented with 0.05% BSA. FRET1 degradation was measured by changes in fluorescence (λex = 340 nm, λem = 420 nm); FAßB degradation was monitored by fluorescence polarization (λex = 488 nm, λem = 525 nm), as described; and insulin degradation was quantified by ELISA. In vitro activity assays incorporated recombinant human IDE (1 nM) purified from bacteria. For quantitation of insulin degradation in primary murine skin fibroblasts, cells (1 x 10^5/well) were plated in 96-well plates and maintained in DMEM supplemented with 10% fetal bovine serum (FBS), 2mM glutamine, penicillin and streptomycin. After addition of insulin (10 nM or 100 nM), samples of conditioned medium were removed daily and quickly frozen, then insulin levels were quantified in parallel by ELISA according to manufacturer’s recommendations (Crystal Chem, Downers Grove, IL, USA). Assessment of the activity of P12-3A against a variety of matrix-metalloproteases was conducted using the Matrix Metalloproteinase (MMP) Inhibitor Profiling Kit, Fluorometric RED (Enzo Life Sciences, Inc., Farmingdale, NY, USA) according to manufacturer’s recommendations using the broad-spectrum MMP inhibitor, NNGH, as a positive control.

[3] = initial test, percent of initial velocity relative to DMSO-only controls, individual replicates, read-out: Percent activity at 500 uM, Replicate 1-4
[4] = judged as IC50 <100 uM?, individual replicates, read-out: Percent activity at 500 uM, Replicate 1-4
[5] = initial test, percent of initial velocity relative to DMSO-only controls, N 4, read-out: Percent activity at 500 uM, Mean
[6] = judged as IC50 <100 uM?, N 4, read-out: Percent activity at 500 uM, Mean

Molecule: Ac-FPMPSRPH-NH2 [P12-2D]
IC50 (IDE [1]): > 500 µM | remaining activity at 500 µM (IDE [1]; [4]): 88.8% | Ki (IDE [1]): > 500 µM | IC50 (IDE [2]): > 10 µM | Ki (IDE [2]): > 10 µM

Molecule: CC[C@H](C)[C@@H]1NC(=O)[C@H](CO)NC(=O)[C@H](Cc2c[nH]c3ccccc23)NC(=O)[C@H](Cc2c[nH]c3ccccc23)NC(=O)[C@H](CO)NC(=O)[C@@H](NC(=O)[C@H](C)N)CSSC[C@@H](C(=O)NCC(=O)O)NC(=O)[C@H](CC(C)C)NC(=O)[C@H](Cc2c[nH]cn2)NC1=O [C7C-1] (H-ACSWWSIHLCG-OH; disulfide 2-10 (inferred))
IC50 <500 uM? (IDE [1]): YES | remaining activity at 500 µM (IDE [1]; [5]): 11.4% | remaining activity at 500 µM (IDE [1]; [6]): 44.2% | remaining activity at 500 µM (IDE [1]; [4]): 52% | IC50 <10 uM? (IDE [2]; initial test at 10 uM using insulin (100 nM)): YES | remaining activity at 0.016 µM (IDE [2]; insulin ELISA, Cmpd 0.016 uM, Runs 1-3, read-out: Percent Activity (normalized source data)): 75% | remaining activity at 0.08 µM (IDE [2]; insulin ELISA, Cmpd 0.08 uM, Runs 1-3, read-out: Percent Activity (normalized source data)): 93.7% | remaining activity at 0.4 µM (IDE [2]; insulin ELISA, Cmpd 0.4 uM, Runs 1-3, read-out: Percent Activity (normalized source data)): 66.1% | remaining activity at 2 µM (IDE [2]; insulin ELISA, Cmpd 2 uM, Runs 1-3, read-out: Percent Activity (normalized source data)): 73.9% | remaining activity at 10 µM (IDE [2]; insulin ELISA, Cmpd 10 uM, Runs 1-3, read-out: Percent Activity (normalized source data)): 51.8%

Molecule: LNFPMPSRPHSS [P12-2]
IC50 (IDE [1]): > 100 µM | IC50 <500 uM? (IDE [1]): YES | remaining activity at 500 µM (IDE [1]; [4]): 59.9% | Ki (IDE [1]): > 100 µM | IC50 (IDE [2]): > 10 µM | Ki (IDE [2]): > 10 µM

Molecule: Ac-PISGKFFQ-NH2 [P12-4D]
IC50 (IDE [1]): > 500 µM | remaining activity at 500 µM (IDE [1]; [3]): 74.3% | remaining activity at 500 µM (IDE [1]; [4]): 91.1% | Ki (IDE [1]): ≥ 500 µM | IC50 (IDE [2]): > 10 µM | Ki (IDE [2]): ≥ 10 µM

Molecule: CC[C@H](C)[C@@H]1NC(=O)[C@H](CO)NC(=O)[C@H](Cc2c[nH]c3ccccc23)NC(=O)[C@H](Cc2c[nH]c3ccccc23)NC(=O)[C@H](CO)NC(=O)[C@@H](NC(=O)[C@H](C)N)CSSC[C@@H](C(=O)NCC(=O)NCC(=O)NCC(=O)O)NC(=O)[C@H](CC(C)C)NC(=O)[C@H](Cc2c[nH]cn2)NC1=O [C7C-1B] (H-ACSWWSIHLCGGG-OH; disulfide 2-10 (inferred))
IC50 <500 uM? (IDE [1]): YES | remaining activity at 500 µM (IDE [1]; [5]): 30.4% | remaining activity at 500 µM (IDE [1]; [3]): 30.3% | remaining activity at 500 µM (IDE [1]; [6]): 56.8% | remaining activity at 500 µM (IDE [1]; [4]): 63.2%

Molecule: CC(C)C[C@@H]1NC(=O)[C@H](Cc2c[nH]cn2)NC(=O)CNC(=O)[C@H](C)NC(=O)[C@H](CC(N)=O)NC(=O)[C@@H](NC(=O)[C@H](C)N)CSSC[C@@H](C(=O)NCC(N)=O)NC(=O)[C@H](CCC(N)=O)NC(=O)[C@H](CO)NC1=O [C7C-2A] (H-ACNAGHLSQCG-NH2; disulfide 2-10 (inferred))
remaining activity at 500 µM (IDE [1]; [5]): 94.1% | remaining activity at 500 µM (IDE [1]; [6]): 92.7% | remaining activity at 500 µM (IDE [1]; [4]): 92.5%

Molecule: WSPISGKF-NH2 [P12-4B]
IC50 (IDE [1]): > 500 µM | remaining activity at 500 µM (IDE [1]; [3]): 76.6% | remaining activity at 500 µM (IDE [1]; [4]): 86.6% | Ki (IDE [1]): ≥ 500 µM | IC50 (IDE [2]): > 10 µM | Ki (IDE [2]): ≥ 10 µM

Molecule: CC[C@H](C)[C@@H]1NC(=O)[C@H](CO)NC(=O)[C@H](Cc2c[nH]c3ccccc23)NC(=O)[C@H](Cc2c[nH]c3ccccc23)NC(=O)[C@H](CO)NC(=O)[C@@H](NC(=O)[C@H](C)N)CSSC[C@@H](C(=O)NCC(N)=O)NC(=O)[C@H](CC(C)C)NC(=O)[C@H](Cc2c[nH]cn2)NC1=O [C7C-1A] (H-ACSWWSIHLCG-NH2; disulfide 2-10 (inferred))
IC50 <500 uM? (IDE [1]): YES | remaining activity at 500 µM (IDE [1]; [5]): 22.5% | remaining activity at 500 µM (IDE [1]; [3]): 25.1% | remaining activity at 500 µM (IDE [1]; [6]): 59.5% | remaining activity at 500 µM (IDE [1]; [4]): 56.6%

The remaining lines, values ahead:

IC50 (IDE [1]): > 100 µM | IC50 <500 uM? (IDE [1]): YES | remaining activity at 500 µM (IDE [1]; [3]): 31.8% | remaining activity at 500 µM (IDE [1]; [4]): 58.5% | Ki (IDE [1]): > 100 µM | IC50 (IDE [2]): > 10 µM | Ki (IDE [2]): > 10 µM
Molecule: LNFPMPSRPHSS-NH2 [P12-2A]

IC50 (IDE [1]): > 500 µM | remaining activity at 500 µM (IDE [1]; [3]): 81.3% | Ki (IDE [1]): > 500 µM | IC50 (IDE [2]): > 10 µM | Ki (IDE [2]): > 10 µM
Molecule: LNFPMPSR-NH2 [P12-2B]

remaining activity at 500 µM (IDE [1]; [5]): 54% | remaining activity at 500 µM (IDE [1]; [3]): 48.4% | remaining activity at 500 µM (IDE [1]; [6]): 72.8% | remaining activity at 500 µM (IDE [1]; [4]): 76.4%
Molecule: CC(C)C[C@@H]1NC(=O)[C@H](Cc2c[nH]cn2)NC(=O)CNC(=O)[C@H](C)NC(=O)[C@H](CC(N)=O)NC(=O)[C@@H](NC(=O)[C@H](C)N)CSSC[C@@H](C(=O)NCC(=O)O)NC(=O)[C@H](CCC(N)=O)NC(=O)[C@H](CO)NC1=O [C7C-2] (H-ACNAGHLSQCG-OH; disulfide 2-10 (inferred))

IC50 (IDE [1]): > 500 µM | remaining activity at 500 µM (IDE [1]; [4]): 72.7% | Ki (IDE [1]): > 500 µM | IC50 (IDE [2]): > 10 µM | Ki (IDE [2]): > 10 µM
Molecule: Ac-MPSRPHSS [P12-2C]

IC50 (IDE [1]): > 500 µM | remaining activity at 500 µM (IDE [1]; [3]): 59.7% | remaining activity at 500 µM (IDE [1]; [4]): 77.6% | Ki (IDE [1]): ≥ 500 µM | IC50 (IDE [2]): > 10 µM | Ki (IDE [2]): ≥ 10 µM
Molecule: Ac-SGKFFQRF [P12-4C]
